Assay results reported in patent publication US20250236597A1, “DEUTERATED BENZODIAZEPINE ANALOGS AND METHODS OF USE IN TREATING CANCER” (University of Cincinnati, priority 2022, published 2025).

Experiments:
Format in all cases: cell-based
tumors = test: Activity summary of exemplary deuterated compounds (Table 1); conditions: Table 1 summary, result in words
LN18 human glioma cells = test: Cytotoxicity assay (CellTiter 96 AQueous One), LN18 cells; conditions: LN-18, 72 h, read-out: Cytotoxicity of deuterated compounds (IC50, μM)
Description: (§1) Cytotoxicity of DiD3, DiD5, QHD3, QHD5, KRMD3, and KRMD5 was assessed in A375 human melanoma cells, LN18 human glioma cells, and H1792 human NSCLC cells.
(§2) Each compound powder was weighed and dissolved in DMSO to a concentration of 40 mM. Dissolved compounds were stored at 4° C. Drug dilutions were prepared in phenol free medium as follows:
(§3) Cell culture process: Optimum cell number for each cell line was determined and the cell number giving about 1.0 OD value after one hour of incubation with the CellTiter 96® AQueous One Solution Cell Proliferation Assay reagent (Promega) was selected for cell proliferation experiments. On Day 1, cells were trypsinized, counted, and diluted to: A375 human melanoma cells: 30000 cells/mL (3000 cells/100 μL or 3000 cells/well); LN18 human glioma cells: 50000 cells/mL (5000 cells/100 μL or 5000 cells/well); and H1792 human NSCLC cells: 12000 cells/mL (1200 cells/100 μL or 1200 cells/well).
(§4) 100 μL of cell suspension was added to 96 well plates. Rows B to G and columns 2 to 11 were seeded with cells. Outer wells around the plate were filled with 100 μL phosphate buffered saline (PBS), except wells A2 to A6, which were filled with medium without cells. Cells were then incubated 24 hours and allowed to attach.
(§5) On Day 2: drug and controls were added to the plated cells as follows: background control: medium in wells A2 to A6 was aspirated and replaced with 100 μL fresh medium; control and test dilutions: medium was carefully aspirated and 100 μL of DMSO control or diluted drug was added to 5 consecutive wells in the same row. After drug addition, plates were returned to the incubator for 48 to 72 hours.
(§6) On Day 5 or 6:20 μL of CellTiter 96® AQueous One Solution Cell Proliferation Assay reagent (Promega) was added to each control or test well, incubated 1 to 2 hours, and then OD was acquired at 490 nm.
(§7) Data analysis: the average OD from the five wells containing medium and no cells (A2 to A6) was calculated and the value subtracted from each individual OD reading. The OD readings for each drug dilution was normalized to DMSO control, set as 100% cell viability/proliferation. Log drug concentration versus percentage viability was then plotted using GraphPad Prism.

[1] = tested on: A375 human melanoma cells; test: Cytotoxicity assay (CellTiter 96 AQueous One), A375 cells; conditions: A-375, 72 h, read-out: Cytotoxicity of deuterated compounds (IC50, μM)
Description: as §1, §2, §3, §4, §5, §6, §7

H1792 human NSCLC cells = test: Cytotoxicity assay (CellTiter 96 AQueous One), H1792 cells; conditions: NCI-H1792, 72 h, read-out: Cytotoxicity of deuterated compounds (IC50, μM)
Description: as §1, §2, §3, §4, §5, §6, §7

[2] = tested on: human patient-derived cancer cell lines; test: Cytotoxicity against the tested cancer cell lines (overall statement); conditions: A375, LN18 and H1792 cells, result in words
Description: as §1, §2, §3
100 μL of cell suspension was added to 96 well plates. Rows B to G and columns 2 to 11 were seeded with cells. […]
Data analysis: the average OD from the five wells containing medium and no cells (A2 to A6) was calculated and the value subtracted from each individual OD reading. The OD readings for each drug dilution was normalized to DMSO control, set as 100% cell viability/proliferation. […]

Compound | Activity (tumors) | IC50 (LN18 human glioma cells) [µM] | IC50 [1] [µM] | IC50 (H1792 human NSCLC cells) [µM] | Cytotoxicity against the tested human patient-derived cancer cell lines [2]
[2H]C([2H])([2H])N1C(=O)CN=C(c2ccccc2F)c2cc(C#C)ccc21 [KRMD3] | Active against tumors | 2.43 | 0.35 | 2.13 | 
[2H]C1([2H])N=C(c2ccccc2)c2cc(Cl)ccc2N(C([2H])([2H])[2H])C1=O [DiD5] | Inactive |  |  |  | non-cytotoxic
[2H]C([2H])([2H])N1C(=O)CN=C(c2ccccc2)c2cc(Cl)ccc21 [DiD3] | Inactive |  |  |  | non-cytotoxic
[2H]C([2H])([2H])N1C(=O)CN=C(c2ccccc2)c2cc(C#C)ccc21 [QHD3] | Active against tumors | 1.81 | 0.31 | 1.75 | 
[2H]C1([2H])N=C(c2ccccc2F)c2cc(C#C)ccc2N(C([2H])([2H])[2H])C1=O [KRMD5] | Active against tumors | 2.67 | 0.63 | 2.52 | 
[2H]C1([2H])N=C(c2ccccc2)c2cc(C#C)ccc2N(C([2H])([2H])[2H])C1=O [QHD5] | Active against tumors | 2.51 | 0.46 | 1.98 | 
